In the NIST ThermoML archive (doi:10.1016/j.jct.2012.06.010):

Columns and labels:
[1] = Molar enthalpy of transition or fusion; conditions: DSC
[2] = molar heat capacity at constant pressure; conditions: 101.33 kPa, Small sample (50 mg) DSC
[3] = DTA

O=C(O)c1cccnc1 [3-carboxylpyridine]
Conditions	Molar enthalpy of transition or fusion, [1] [kJ/mol]	Triple point temperature, [3] [K]
Crystal 1	28.2	509.91
Crystal 2	0.9	455

[2]
Conditions	molar heat capacity at constant pressure [J/K/mol]
296.01 K, Crystal 2	139.9
298.06 K, Crystal 2	141.2
303.2 K, Crystal 2	144.2
308.34 K, Crystal 2	147
313.48 K, Crystal 2	149.4
318.62 K, Crystal 2	152.3
323.76 K, Crystal 2	154.8
328.9 K, Crystal 2	156.5
334.04 K, Crystal 2	158.2
339.18 K, Crystal 2	159.8
343.24 K, Crystal 2	160.4
348.38 K, Crystal 2	163.3
353.52 K, Crystal 2	165.9
358.66 K, Crystal 2	167.9
363.8 K, Crystal 2	170
368.94 K, Crystal 2	171.5
374.08 K, Crystal 2	173.2
379.22 K, Crystal 2	175.4
384.37 K, Crystal 2	177.6
389.51 K, Crystal 2	179.4
394.65 K, Crystal 2	181.2
399.79 K, Crystal 2	183.5
404.93 K, Crystal 2	185.8
410.07 K, Crystal 2	189.4
415.21 K, Crystal 2	194.3
420.35 K, Crystal 2	198
425.49 K, Crystal 2	201.7
430.63 K, Crystal 2	205.3
435.77 K, Crystal 2	212.1
440.91 K, Crystal 2	219.1
448.1 K, Crystal 2	231.3
449.13 K, Crystal 2	240.6
450.16 K, Crystal 2	254.7
451.19 K, Crystal 2	273.6
452.22 K, Crystal 2	292.5
453.24 K, Crystal 2	334.7
454.27 K, Crystal 2	418.6
455.3 K, Crystal 2	440.3
456.33 K, Crystal 1	382.6
457.36 K, Crystal 1	326.3
458.38 K, Crystal 1	297.2
459.41 K, Crystal 1	280.2
460.44 K, Crystal 1	263.1
461.47 K, Crystal 1	251.7
462.5 K, Crystal 1	245.7
463.52 K, Crystal 1	239.8
464.55 K, Crystal 1	235.7
465.58 K, Crystal 1	233.6
466.61 K, Crystal 1	231.4
467.64 K, Crystal 1	229.5
468.66 K, Crystal 1	227.8
469.69 K, Crystal 1	226.1
479.97 K, Crystal 1	231.6
482.03 K, Crystal 1	232.2
487.17 K, Crystal 1	233.6
492.31 K, Crystal 1	235.1
497.45 K, Crystal 1	237.2
500.53 K, Crystal 1	245.9
503.62 K, Crystal 1	254.7
504.65 K, Crystal 1	280.5
505.67 K, Crystal 1	306.3
506.7 K, Crystal 1	422.7
507.73 K, Crystal 1	1073.5
508.76 K, Crystal 1	7052.2
510.81 K, Liquid	1773.6
511.84 K, Liquid	309.8
512.87 K, Liquid	307.2
515.95 K, Liquid	307.4
518.01 K, Liquid	308.6
523.15 K, Liquid	311.5
528.29 K, Liquid	314.4
531.37 K, Liquid	316.2
